# Measured values: ChEMBL document CHEMBL1139972, “Dihydro-[1H]-quinolin-2-ones as retinoid X receptor (RXR) agonists for potential treatment of dyslipidemia” (Bioorg Med Chem Lett, 2007)
# pEC50: −log10 of the molar value. Active and inactive are the calls of the source. No cut-off for these calls is given here.
# Assays:
# Rattus norvegicus [1] = assay: Effect on serum LDL-C level in high cholesterol diet fed Sprague-Dawley rat at 1 mg/kg, po after 8 days relative to control; assay type: functional
# Rattus norvegicus [2] = assay: Effect on serum LDL-C level in high cholesterol diet fed Sprague-Dawley rat at 30 mg/kg, po after 8 days relative to control; assay type: functional
# Rattus norvegicus [3] = assay: Effect on serum cholesterol level in high cholesterol diet fed Sprague-Dawley rat at 0.3 mg/kg, po after 8 days relative to control; assay type: functional
# Rattus norvegicus [4] = assay: Effect on serum HDL-C level in high cholesterol diet fed Sprague-Dawley rat at 10 mg/kg, po after 8 days relative to control; assay type: functional
# [5] = Clearance in rat at 3 mg/kg, po; assay type: ADME, organism-based; design: dose 3 mg/kg, route oral; conditions: in vivo
# Rattus norvegicus [6] = assay: Effect on serum cholesterol level in high cholesterol diet fed Sprague-Dawley rat at 10 mg/kg, po after 8 days relative to control; assay type: functional
# [7] = Oral bioavailability in rat at 3 mg/kg; assay type: ADME, organism-based; conditions: in vivo
# Rattus norvegicus [8] = assay: Effect on serum LDL-C level in high cholesterol diet fed Sprague-Dawley rat at 0.3 mg/kg, po after 8 days relative to control; assay type: functional
# [9] = Activity at RXR-LXR heterodimer assessed as induction of ABCA1 mRNA; design: species or system Homo sapiens
# Rattus norvegicus [10] = assay: Effect on serum triglyceride level in high cholesterol diet fed Sprague-Dawley rat at 1 mg/kg, po after 8 days relative to control; assay type: functional
# Rattus norvegicus [11] = assay: Effect on serum LDL-C level in high cholesterol diet fed Sprague-Dawley rat at 10 mg/kg, po after 8 days relative to control; assay type: functional
# [12] = Half life in rat at 3 mg/kg, po; assay type: ADME, organism-based; design: dose 3 mg/kg, route oral; conditions: in vivo
# Rattus norvegicus [13] = assay: Effect on serum cholesterol level in high cholesterol diet fed Sprague-Dawley rat at 3 mg/kg, po after 8 days relative to control; assay type: functional
# Rattus norvegicus [14] = assay: Effect on serum HDL-C level in high cholesterol diet fed Sprague-Dawley rat at 0.3 mg/kg, po after 8 days relative to control; assay type: functional
# [15] = target: T1, Retinoic acid receptor RXR-alpha (Homo sapiens) (UniProt P19793); assay: Activity at RXRalpha by GAL4DNA cotransfection assay relative to 5-((3-(1-ethyl-4,4,6-trimethyl-2-oxo-1,2,3,4-tetrahydroquinolin-7-yl)-4-(trifluoromethoxy)phenyl)methylene)thiazolidine-2,4-dione; design: concentration or dose not given beside the values
# T1 sequence (whole entry): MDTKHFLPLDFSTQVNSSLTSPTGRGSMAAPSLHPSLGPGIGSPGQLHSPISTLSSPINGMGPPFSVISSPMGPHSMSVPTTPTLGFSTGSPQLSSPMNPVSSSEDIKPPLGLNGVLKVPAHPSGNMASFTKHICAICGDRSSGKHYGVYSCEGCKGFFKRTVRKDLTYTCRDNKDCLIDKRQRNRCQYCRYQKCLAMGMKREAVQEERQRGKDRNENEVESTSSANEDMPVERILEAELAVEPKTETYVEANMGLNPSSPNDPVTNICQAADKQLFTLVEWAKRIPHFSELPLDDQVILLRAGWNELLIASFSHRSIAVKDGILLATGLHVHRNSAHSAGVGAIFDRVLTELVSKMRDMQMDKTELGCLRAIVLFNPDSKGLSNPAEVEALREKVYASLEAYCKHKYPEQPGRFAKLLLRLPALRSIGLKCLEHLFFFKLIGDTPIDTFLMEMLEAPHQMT
# Rattus norvegicus [16] = assay: Effect on serum triglyceride level in high cholesterol diet fed Sprague-Dawley rat at 0.3 mg/kg, po after 8 days relative to control; assay type: functional
# Rattus norvegicus [17] = assay: Effect on serum HDL-C level in high cholesterol diet fed Sprague-Dawley rat at 30 mg/kg, po after 8 days relative to control; assay type: functional
# [18] = Cmax in high cholesterol diet fed Sprague-Dawley rat at 0.3 mg/kg, po after 8 days; assay type: ADME, organism-based; design: dose 0.3 mg/kg, route oral; conditions: in vivo
# Rattus norvegicus [19] = assay: Effect on serum LDL-C level in high cholesterol diet fed Sprague-Dawley rat at 3 mg/kg, po after 8 days relative to control; assay type: functional
# [20] = target: T2, Retinoic acid receptor RXR-alpha (Homo sapiens, UniProt P19793); assay: Activity at RXRalpha by GAL4DNA cotransfection assay
# T2 sequence (P19793 whole entry): T1 sequence (whole entry)
# Mus musculus = species: Mus musculus; assay: Decrease in blood glucose level in db/db mouse after 11 days; assay type: functional, organism-based
# [21] = Cmax in rat at 3 mg/kg, po; assay type: ADME, organism-based; design: dose 3 mg/kg, route oral; conditions: in vivo
# [22] = Cmax in high cholesterol diet fed Sprague-Dawley rat at 30 mg/kg, po after 8 days; assay type: ADME, organism-based; design: dose 30 mg/kg, route oral; conditions: in vivo
# Rattus norvegicus [23] = assay: Effect on serum triglyceride level in high cholesterol diet fed Sprague-Dawley rat at 3 mg/kg, po after 8 days relative to control; assay type: functional
# Rattus norvegicus [24] = assay: Effect on serum triglyceride level in high cholesterol diet fed Sprague-Dawley rat at 10 mg/kg, po after 8 days relative to control; assay type: functional
# [25] = AUC in rat at 3 mg/kg, po; assay type: ADME, organism-based; design: dose 3 mg/kg, route oral; conditions: plasma
# Rattus norvegicus [26] = assay: Effect on serum HDL-C level in high cholesterol diet fed Sprague-Dawley rat at 3 mg/kg, po after 8 days relative to control; assay type: functional
# Rattus norvegicus [27] = assay: Effect on serum triglyceride level in high cholesterol diet fed Sprague-Dawley rat at 30 mg/kg, po after 8 days relative to control; assay type: functional
# Rattus norvegicus [28] = assay: Effect on serum cholesterol level in high cholesterol diet fed Sprague-Dawley rat at 1 mg/kg, po after 8 days relative to control; assay type: functional
# [29] = Activity at RXR-PPARgamma in human preadipocytes assessed as induction of adipocytes fatty acid binding protein; assay type: cell-based
# Homo sapiens = species: Homo sapiens; assay: Activation of RXR-LXR heterodimer assessed as induction of ABCA1 mRNA relative to 5-((3-(1-ethyl-4,4,6-trimethyl-2-oxo-1,2,3,4-tetrahydroquinolin-7-yl)-4-(trifluoromethoxy)phenyl)methylene)thiazolidine-2,4-dione; design: concentration or dose not given beside the values
# Rattus norvegicus [30] = assay: Effect on serum HDL-C level in high cholesterol diet fed Sprague-Dawley rat at 1 mg/kg, po after 8 days relative to control; assay type: functional
# Rattus norvegicus [31] = assay: Effect on serum cholesterol level in high cholesterol diet fed Sprague-Dawley rat at 30 mg/kg, po after 8 days relative to control; assay type: functional
compound,measurement,setting,value
CCN1C(=O)CC(C)(C)c2cc(C)c(-c3cc(CCC(=O)O)ccc3OC(F)(F)F)cc21,Activity,Rattus norvegicus [1],46 mg/dL
same,Activity,Rattus norvegicus [2],38 mg/dL
same,Activity,Rattus norvegicus [3],343 mg/dL
same,Activity,Rattus norvegicus [4],39 mg/dL
same,CL/F,[5],4.6 mL/min/kg
same,Activity,Rattus norvegicus [6],228 mg/dL
same,bioavailability,[7],71%
same,Activity,Rattus norvegicus [8],53 mg/dL
same,pEC50,[9],7.33
same,Activity,Rattus norvegicus [10],279 mg/dL
same,Activity,Rattus norvegicus [11],35 mg/dL
same,half-life,[12],24 h
same,Activity,Rattus norvegicus [13],302 mg/dL
same,Activity,Rattus norvegicus [14],29 mg/dL
same,Activity,[15],79%
same,Activity,Rattus norvegicus [16],320 mg/dL
same,Activity,Rattus norvegicus [17],42 mg/dL
same,Cmax,[18],58.5 ng/mL
same,Activity,Rattus norvegicus [19],46 mg/dL
same,pEC50,[20],8.14
same,Activity,Mus musculus,inactive
same,Cmax,[21],678 ng/mL
same,Cmax,[22],7510 ng/mL
same,Activity,Rattus norvegicus [23],253 mg/dL
same,Activity,Rattus norvegicus [24],270 mg/dL
same,AUC,[25],6130 ng·h/mL
same,Activity,Rattus norvegicus [26],37 mg/dL
same,Activity,Rattus norvegicus [27],322 mg/dL
same,Activity,Rattus norvegicus [28],313 mg/dL
same,pEC50,[29],5.92
same,Activity,Homo sapiens,70%
same,Activity,Rattus norvegicus [30],30 mg/dL
same,Activity,Rattus norvegicus [31],252 mg/dL
